Data published in patent publication US8247211B2, “Glycopeptide antibiotics” (American Cyanamid Company, priority 2001, dated 2012).
Values after ≈ are worked out from the molar mass of the structure shown.

Legend:
Assay in all cases: In vitro antibacterial evaluation: minimum inhibitory concentration (MIC), broth dilution method
Format in all cases: cell-based
[1] = tested on: Enterococcus sp.; settings: 18 hours at 35° C.
How it was run: (§1)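 First, organisms are seeded at 5×10^5 CFU/mL into Muller-Hinton II […]. Next, antibiotic is applied across 64-0.06 μg/mL by broth dilution (NCCLS M7-A2). Finally, the lowest inhibitory concentration is recorded as MIC.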

[2] = tested on: Escherichia coli; settings: 18 hours at 35° C.
How it was run: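 NCCLS M7-A2 broth dilution with Mueller-Hinton II, testing 64-0.06 μg/mL antibiotic against 5×10^5 CFU/mL inocula. Test strains include recent methicillin-, penicillin- or vancomycin-resistant clinical isolates. MIC is the lowest concentration preventing growth.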

[3] = tested on: Staphylococcus sp.
How it was run: as §1

[4] = tested on: Streptococcus sp.; settings: 18 hours at 35° C.
How it was run: as §1

[5] = broth dilution, inoculum 5×10^5 CFU/mL

- MIC Enterococcus avium (GC 4558) ([1]; Enterococcus avium (GC 4558)): 0.5 µg/mL (≈ 0.35 µM)
- MIC Enterococcus faecalis (ATCC 29212) ([1]; Enterococcus faecalis (ATCC 29212)): 0.5 µg/mL (≈ 0.35 µM)
- MIC Enterococcus faecalis (GC 2242) ([1]; Enterococcus faecalis (GC 2242)): 1 µg/mL (≈ 0.7 µM)
- MIC Enterococcus faecalis (GC 2691) ([1]; Enterococcus faecalis (GC 2691)): 1 µg/mL (≈ 0.7 µM)
- MIC Enterococcus faecalis (GC 3059) ([1]; Enterococcus faecalis (GC 3059)): 1 µg/mL (≈ 0.7 µM)
- MIC Enterococcus faecalis (GC 4552) ([1]; Enterococcus faecalis (GC 4552)): 1 µg/mL (≈ 0.7 µM)
- MIC Enterococcus faecalis (GC 4553) ([1]; Enterococcus faecalis (GC 4553)): 0.5 µg/mL (≈ 0.35 µM)
- MIC Enterococcus faecalis (GC 4554) ([1]; Enterococcus faecalis (GC 4554)): 1 µg/mL (≈ 0.7 µM)
- MIC Enterococcus faecalis (GC 6189) ([1]; Enterococcus faecalis (GC 6189)): 1 µg/mL (≈ 0.7 µM)
- MIC Enterococcus faecium (GC 2243) ([1]; Enterococcus faecium (GC 2243)): 0.5 µg/mL (≈ 0.35 µM)
- MIC Enterococcus faecium (GC 4556) ([1]; Enterococcus faecium (GC 4556)): 1 µg/mL (≈ 0.7 µM)
- MIC Enterococcus faecium (GC 4557) ([1]; Enterococcus faecium (GC 4557)): 0.5 µg/mL (≈ 0.35 µM)
- MIC Enterococcus avium (GC 4558) [1, 5]: 0.5 µg/mL (≈ 0.35 µM)
- MIC Enterococcus faecalis (ATCC 29212) [1, 5]: 0.5 µg/mL (≈ 0.35 µM)
- MIC Enterococcus faecalis (GC 2242) [1, 5]: 1 µg/mL (≈ 0.7 µM)
- MIC Enterococcus faecalis (GC 2691) [1, 5]: 1 µg/mL (≈ 0.7 µM)
- MIC Enterococcus faecalis (GC 3059) [1, 5]: 1 µg/mL (≈ 0.7 µM)
- MIC Enterococcus faecalis (GC 4552) [1, 5]: 1 µg/mL (≈ 0.7 µM)
- MIC Enterococcus faecalis (GC 4553) [1, 5]: 0.5 µg/mL (≈ 0.35 µM)
- MIC Enterococcus faecalis (GC 4554) [1, 5]: 1 µg/mL (≈ 0.7 µM)
- MIC Enterococcus faecalis (GC 6189) [1, 5]: 1 µg/mL (≈ 0.7 µM)
- MIC Enterococcus faecium (GC 2243) [1, 5]: 0.5 µg/mL (≈ 0.35 µM)
- MIC Enterococcus faecium (GC 4556) [1, 5]: 1 µg/mL (≈ 0.7 µM)
- MIC Enterococcus faecium (GC 4557) [1, 5]: 0.5 µg/mL (≈ 0.35 µM)
- MIC Escherichia coli (ATCC 25922) ([2]; Escherichia coli (ATCC 25922)): 32 µg/mL (≈ 22.4 µM)
- MIC Escherichia coli (GC 4559) ([2]; Escherichia coli (GC 4559)): 32 µg/mL (≈ 22.4 µM)
- MIC Escherichia coli (GC 4560) ([2]; Escherichia coli (GC 4560)): 1 µg/mL (≈ 0.7 µM)
- MIC Staphylococcus aureus (ATCC 29213) ([3]; strain ATCC 29213): 0.5 µg/mL (≈ 0.35 µM)
- MIC Staphylococcus aureus (GC 1131) ([3]; strain GC 1131): 0.5 µg/mL (≈ 0.35 µM)
- MIC Staphylococcus aureus (GC 3051) ([3]; strain GC 3051): 0.5 µg/mL (≈ 0.35 µM)
- MIC Staphylococcus aureus (GC 3053) ([3]; strain GC 3053): 1 µg/mL (≈ 0.7 µM)
- MIC Staphylococcus aureus (GC 4541) ([3]; strain GC 4541): 0.5 µg/mL (≈ 0.35 µM)
- MIC Staphylococcus aureus (GC 4542) ([3]; strain GC 4542): 0.5 µg/mL (≈ 0.35 µM)
- MIC Staphylococcus aureus-SMITH (GC 4543) ([3]; strain GC 4543): <0.12 µg/mL
- MIC Staphylococcus aureus (GC 4544) ([3]; strain GC 4544): 0.5 µg/mL (≈ 0.35 µM)
- MIC Staphylococcus aureus (GC 4545) ([3]; strain GC 4545): 1 µg/mL (≈ 0.7 µM)
- MIC Coagulase Negative Staphylococcus (GC 4547) ([3]; strain GC 4547): 0.5 µg/mL (≈ 0.35 µM)
- MIC Coagulase Negative Staphylococcus (GC 4548) ([3]; strain GC 4548): 0.5 µg/mL (≈ 0.35 µM)
- MIC Coagulase Negative Staphylococcus (GC 4549) ([3]; strain GC 4549): <0.12 µg/mL
- MIC Coagulase Negative Staphylococcus (GC 4551) ([3]; strain GC 4551): 0.5 µg/mL (≈ 0.35 µM)
- MIC Streptococcus agalactiae (GC 4564) ([4]; Streptococcus agalactiae (GC 4564)): <0.12 µg/mL
- MIC Streptococcus pneumoniae (ATCC 6301) ([4]; Streptococcus pneumoniae (ATCC 6301)): <0.12 µg/mL
- MIC Streptococcus pneumoniae (GC 1894) ([4]; Streptococcus pneumoniae (GC 1894)): <0.12 µg/mL
- MIC Streptococcus pneumoniae (GC 4565) ([4]; Streptococcus pneumoniae (GC 4565)): <0.12 µg/mL
- MIC Streptococcus pyogenes (GC 4563) ([4]; Streptococcus pyogenes (GC 4563)): <0.12 µg/mL
- MIC Streptococcus agalactiae (GC 4564) [4, 5]: <0.12 µg/mL
- MIC Streptococcus pneumoniae (ATCC 6301) [4, 5]: <0.12 µg/mL
- MIC Streptococcus pneumoniae (GC 1894) [4, 5]: <0.12 µg/mL
- MIC Streptococcus pneumoniae (GC 4565) [4, 5]: <0.12 µg/mL
- MIC Streptococcus pyogenes (GC 4563) [4, 5]: <0.12 µg/mL
SMILES: CC(c1ccccc1)C1NC(=O)CNC(=O)C(CO)NC(=O)C(C(O)C2CNC(=N)N2C2OC(CO)C(O)C(O)C2O)NC(=O)C(C(O)C2CNC(=N)N2)NC(=O)C(Cc2ccc(OC3OC(CO)C(OC4OC5COC6(CC7CCC6(C)C7(C)C)OC5C(O)C4O)C(O)C3O)cc2)NC1=O (stereo not drawn) [Example 215, Cyclo[glycyl-β-methylphenylalanyl-O-[4-O-[4,6-O-(1,7,7-trimethylbicyclo[2.2.1]hept-2-ylidene)hexopyranosyl]hexopyranosyl]tyrosyl-3-(2-iminoimidazolidin-4-yl)seryl-3-(3-hexopyranosyl-2-iminoimidazolidin-4-yl)serylseryl]]
- MIC Staphylococcus haemolyticus (GC 4546) ([3]; strain GC 4546): 0.5 µg/mL (≈ 0.35 µM)
